This passage reports Ki results from patent publication US7446199B2, “Compositions useful as inhibitors of protein kinases” (Vertex Pharmaceuticals Incorporated, priority 2003, dated 2008).

Common to all, as to assay type: biochemical
One test deals with T1, JAK3 (Homo sapiens, UniProt P52333).
T1 sequence (P52333 1-1124): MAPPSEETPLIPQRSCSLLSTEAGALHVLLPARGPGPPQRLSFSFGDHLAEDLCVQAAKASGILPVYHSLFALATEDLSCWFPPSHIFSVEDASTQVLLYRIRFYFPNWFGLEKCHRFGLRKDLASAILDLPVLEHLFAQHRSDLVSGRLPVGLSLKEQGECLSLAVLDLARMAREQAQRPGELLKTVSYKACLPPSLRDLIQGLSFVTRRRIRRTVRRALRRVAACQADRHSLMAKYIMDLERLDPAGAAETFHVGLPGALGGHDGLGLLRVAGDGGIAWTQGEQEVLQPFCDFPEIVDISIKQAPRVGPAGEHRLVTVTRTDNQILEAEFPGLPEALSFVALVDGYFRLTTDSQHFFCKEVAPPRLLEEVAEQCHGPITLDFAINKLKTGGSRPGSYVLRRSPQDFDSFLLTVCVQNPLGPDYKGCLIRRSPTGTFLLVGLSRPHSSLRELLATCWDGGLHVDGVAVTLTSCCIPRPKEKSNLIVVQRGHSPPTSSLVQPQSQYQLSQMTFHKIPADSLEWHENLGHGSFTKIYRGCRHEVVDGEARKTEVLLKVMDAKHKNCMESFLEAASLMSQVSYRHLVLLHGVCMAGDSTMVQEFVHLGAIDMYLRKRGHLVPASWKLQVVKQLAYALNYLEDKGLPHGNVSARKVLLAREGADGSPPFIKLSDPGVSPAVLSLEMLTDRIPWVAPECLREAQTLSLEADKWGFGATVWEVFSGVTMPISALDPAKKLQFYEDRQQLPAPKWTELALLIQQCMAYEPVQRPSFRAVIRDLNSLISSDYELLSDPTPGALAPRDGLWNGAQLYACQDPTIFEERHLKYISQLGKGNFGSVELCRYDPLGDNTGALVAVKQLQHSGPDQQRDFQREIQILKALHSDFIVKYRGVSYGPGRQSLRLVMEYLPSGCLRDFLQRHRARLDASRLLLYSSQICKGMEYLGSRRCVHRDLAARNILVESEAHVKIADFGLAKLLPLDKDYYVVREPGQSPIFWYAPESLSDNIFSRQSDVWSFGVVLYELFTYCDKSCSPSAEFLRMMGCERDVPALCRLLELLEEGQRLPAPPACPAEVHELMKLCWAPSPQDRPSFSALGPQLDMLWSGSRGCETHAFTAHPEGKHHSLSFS
The test can be described thus: JAK3 inhibition assay (ELISA, Poly (Glu, Ala, Tyr) coated plates). The settings on record: 2 mM ATP, 60 minutes at 30° C. In short, it runs like this: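 ELISA on Poly(Glu,Ala,Tyr) 6:3:1-coated plates with 2 mM ATP and 5 mM MgCl2. JAK enzyme started the reaction, run 60 min at 30° C. Phosphotyrosine was detected with HRP-conjugated 4G10 antibody and TMB, read at 450 nm, and IC50 was derived from optical densities.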

The target of another test is KDR (Homo sapiens, UniProt P35968). In words: KDR enzyme assay, coupled enzyme assay. The settings on record: 300 μM ATP, 10 μM poly E4Y, 30 nM KDR, 37° C. In a few lines: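 Coupled enzyme (PK/LDH, NADH) assay with 30 nM KDR in 200 mM HEPES 7.5, 10 mM MgCl2, 25 mM NaCl, 1 mM DTT, 1.5% DMSO; 300 μM ATP, 10 μM poly E4Y. Compound at 30 μM final, preincubated ~10 min at 37 °C before ATP start; rates read over 5 min at 37 °C.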

Another test addresses T2, c-KIT (Homo sapiens, UniProt P10721).
T2 construct: 0.02% BSA and 25 nM c-KIT
The test can be described thus: Inhibition of c-KIT, radiometric filter-binding assay. The settings on record: 700 μM ATP, 0.5 mg/mL pE4Y, room temperature. In a few lines: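 Radiometric filter-binding: 25 nM c-KIT (enzyme in the Solution 2 mix) with poly(Glu,Tyr) 4:1 substrate at 0.5 mg/mL and [γ-^33P]ATP at 700 μM (both final), in HEPES pH 7.5/MgCl2/NaCl/DTT/BSA with 2.5% DMSO. Incubated 20 min at room temperature, stopped with TCA, and ^33P incorporation counted on filters. 12-point titration, final compound typically 0.01-5 μM; IC50 or Ki from curve fit.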

A value given as a limit tells only on which side of the number the result lay.

T2 sequence (P10721 26-976): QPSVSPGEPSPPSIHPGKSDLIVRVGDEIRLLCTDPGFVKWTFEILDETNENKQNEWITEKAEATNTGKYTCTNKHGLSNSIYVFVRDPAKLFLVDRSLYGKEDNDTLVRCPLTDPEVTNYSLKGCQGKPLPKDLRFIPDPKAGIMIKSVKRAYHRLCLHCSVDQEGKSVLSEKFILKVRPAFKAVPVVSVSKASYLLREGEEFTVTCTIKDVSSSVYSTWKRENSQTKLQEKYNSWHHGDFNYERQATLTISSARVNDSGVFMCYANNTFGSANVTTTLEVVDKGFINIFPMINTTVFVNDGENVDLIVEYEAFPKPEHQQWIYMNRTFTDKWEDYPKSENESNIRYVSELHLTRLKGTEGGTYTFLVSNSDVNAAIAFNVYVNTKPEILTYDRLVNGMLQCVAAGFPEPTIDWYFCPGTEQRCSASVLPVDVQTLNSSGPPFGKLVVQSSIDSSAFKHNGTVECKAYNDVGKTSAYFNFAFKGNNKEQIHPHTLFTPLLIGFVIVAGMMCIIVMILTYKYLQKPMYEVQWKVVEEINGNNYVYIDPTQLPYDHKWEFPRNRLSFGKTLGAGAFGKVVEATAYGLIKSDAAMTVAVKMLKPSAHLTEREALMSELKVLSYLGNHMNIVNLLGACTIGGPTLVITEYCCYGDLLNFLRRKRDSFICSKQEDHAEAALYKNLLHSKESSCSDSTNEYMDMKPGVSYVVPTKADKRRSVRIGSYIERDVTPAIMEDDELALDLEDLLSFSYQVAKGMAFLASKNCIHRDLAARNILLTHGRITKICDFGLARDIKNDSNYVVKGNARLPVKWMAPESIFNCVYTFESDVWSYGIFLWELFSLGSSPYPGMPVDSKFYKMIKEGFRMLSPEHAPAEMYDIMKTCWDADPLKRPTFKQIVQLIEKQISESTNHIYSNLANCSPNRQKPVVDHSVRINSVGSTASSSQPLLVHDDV
Chain of KDR (P35968 20-1356): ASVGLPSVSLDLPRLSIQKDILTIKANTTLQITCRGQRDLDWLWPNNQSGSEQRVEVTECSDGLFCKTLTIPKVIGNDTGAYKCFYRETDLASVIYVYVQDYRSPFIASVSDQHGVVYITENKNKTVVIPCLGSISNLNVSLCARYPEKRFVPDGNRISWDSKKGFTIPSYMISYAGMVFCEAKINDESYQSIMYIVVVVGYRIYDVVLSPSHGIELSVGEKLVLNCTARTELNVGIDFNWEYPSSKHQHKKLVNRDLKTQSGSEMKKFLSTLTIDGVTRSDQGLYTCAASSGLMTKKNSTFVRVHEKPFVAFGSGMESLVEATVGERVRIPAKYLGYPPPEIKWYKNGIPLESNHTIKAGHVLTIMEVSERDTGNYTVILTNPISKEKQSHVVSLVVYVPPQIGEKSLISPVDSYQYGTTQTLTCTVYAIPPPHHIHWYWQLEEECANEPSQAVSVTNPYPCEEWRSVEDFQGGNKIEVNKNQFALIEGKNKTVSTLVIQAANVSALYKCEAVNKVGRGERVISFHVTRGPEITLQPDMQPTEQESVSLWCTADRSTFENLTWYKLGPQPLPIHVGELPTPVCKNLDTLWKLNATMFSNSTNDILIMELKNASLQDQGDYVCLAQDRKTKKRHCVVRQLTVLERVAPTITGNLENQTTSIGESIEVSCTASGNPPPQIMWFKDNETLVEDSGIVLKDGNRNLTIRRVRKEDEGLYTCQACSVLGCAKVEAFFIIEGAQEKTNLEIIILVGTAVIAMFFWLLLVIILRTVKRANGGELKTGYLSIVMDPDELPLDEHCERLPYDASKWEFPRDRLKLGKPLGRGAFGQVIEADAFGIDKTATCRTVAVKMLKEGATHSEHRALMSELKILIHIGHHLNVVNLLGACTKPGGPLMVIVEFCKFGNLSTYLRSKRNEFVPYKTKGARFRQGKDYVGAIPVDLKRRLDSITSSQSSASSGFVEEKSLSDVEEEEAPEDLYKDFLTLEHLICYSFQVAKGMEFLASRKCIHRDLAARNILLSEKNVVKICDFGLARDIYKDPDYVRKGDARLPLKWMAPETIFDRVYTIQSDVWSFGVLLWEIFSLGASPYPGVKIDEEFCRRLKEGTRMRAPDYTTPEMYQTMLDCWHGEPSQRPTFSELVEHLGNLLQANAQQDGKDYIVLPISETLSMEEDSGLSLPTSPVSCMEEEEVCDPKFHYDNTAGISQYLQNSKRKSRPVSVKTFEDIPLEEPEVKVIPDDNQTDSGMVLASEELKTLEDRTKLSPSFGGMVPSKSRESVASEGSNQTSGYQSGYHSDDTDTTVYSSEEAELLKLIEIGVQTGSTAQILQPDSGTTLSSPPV

On to `Fc1cccc(-n2cnnc2-c2c[nH]c3ncc(-c4cccnc4)cc23)c1F` [Compound 113, 3-[4-(2,3-Difluoro-phenyl)-4H-[1,2,4]triazol-3-yl]-5-pyridin-3-yl-1H-pyrrolo[2,3-b]pyridine], for which the values for the Ki on JAK3, on KDR and at c-KIT were 1000 to 12500 nM, 200 to 1000 nM and 200 to 1000 nM, respectively.

For `Fc1cccc(-c2cnoc2-c2c[nH]c3ncc(-c4cccnc4)cc23)c1F` [Compound 59, 3-[4-(2,3-Difluoro-phenyl)-isoxazol-5-yl]-5-pyridin-3-yl-1H-pyrrolo[2,3-b]pyridine], the Ki on JAK3 was less than 200 nM; on KDR, 200 to 1000 nM; at c-KIT it was less than 200 nM.

With `NC1CC=C(c2cnc3[nH]cc(-c4oncc4-c4cccc(F)c4F)c3c2)CC1` (stereo not drawn) [Compound 137, 4-{3-[4-(2,3-Difluoro-phenyl)-isoxazol-5-yl]-1H-pyrrolo [2,3-b]pyridin-5-yl}-cyclohex-3-enylamine], the Ki on JAK3, at KDR and at c-KIT was less than 200 nM each time.

Turning to `CC(=O)Nc1cccc(-c2cnc3[nH]cc(-c4oncc4-c4cccc(F)c4F)c3c2)c1` [Compound 65, N-(3-{3-[4-(2,3-Difluoro-phenyl)-isoxazol-5-yl]-1H-pyrrolo[2,3-b]pyridin-5-yl}-phenyl)-acetamide], the Ki at JAK3, on KDR and on c-KIT was less than 200 nM in each case.

On to `CN(C)c1ccc(-c2cnc3[nH]cc(-c4oncc4-c4cccc(F)c4F)c3c2)cc1` [Compound 88, (4-{3-[4-(2,3-Difluoro-phenyl)-isoxazol-5-yl]-1H-pyrrolo[2,3-b]pyridin-5-yl}-phenyl)-dimethyl-amine], for which the Ki on JAK3, on KDR and on c-KIT was less than 200 nM throughout.

For `Fc1cccc(-c2cnoc2-c2c[nH]c3ncc(-c4cnc5[nH]ccc5c4)cc23)c1F` [Compound 77, 3-[4-(2,3-Difluoro-phenyl)-isoxazol-5-yl]-1H,1′H-[5,5′]bi[pyrrolo[2,3-b]pyridinyl]], the Ki on JAK3, at KDR and at c-KIT was less than 200 nM throughout.

As for `CN(C)CCNc1ccc(-c2cnc3[nH]cc(-c4nncn4-c4cccc(F)c4F)c3c2)cn1` [Compound 119, N′-(5-{3-[4-(2,3-Difluoro-phenyl)-4H-[1,2,4]triazol-3-yl]-1H-pyrrolo[2,3-b]pyridin-5-yl}-pyridin-2-yl)-N,N-dimethyl-ethane-1,2-diamine], the inhibitory constant (Ki) was 1000 to 12500 nM at JAK3, 200 to 1000 nM on KDR and 200 to 1000 nM on c-KIT.

Turning to `Fc1cccc(-c2cnoc2-c2c[nH]c3ncccc23)c1F` [Compound 1, 3-[4-(2,3-Difluoro-phenyl)-isoxazol-5-yl]-1H-pyrrolo[2,3-b]pyridine], the Ki is 200 to 1000 nM at JAK3, 1000 to 12500 nM on KDR and less than 200 nM at c-KIT.

Turning to `Fc1cccc(-c2cnoc2-c2c[nH]c3ncc(C4=CCC(N5CCOCC5)CC4)cc23)c1F` (stereo not drawn) [Compound 139, 3-[4-(2,3-Difluoro-phenyl)-isoxazol-5-yl]-5-(4-morpholin-4-yl-cyclohex-1-enyl)-1H-pyrrolo[2,3-b]pyridine], the Ki at JAK3 was less than 200 nM; on KDR, 200 to 1000 nM; at c-KIT, less than 200 nM.
